Measured values as given in ChEMBL document CHEMBL1201862, “PubChem BioAssay data set” (2004).
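Where inhibition never reached the appropriate level, the endpoint shown equals the highest concentration tested. Otherwise, values were interpolated linearly from a five-concentration, 48-hour dose response in 96-well plates. The concentration for 50% growth inhibition is given as GI50.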 Active and inactive are the calls of the source. Cut-off read from the data, not from the text of the source: active = GI50 up to about 1.1 µM and inactive = higher.

Key:
Assay in all cases: NCI anticancer screen, dose series, 48 h
[1] = system: SF-539
[2] = system: NCI-H460
[3] = system: HOP-62
[4] = system: Malme-3M
[5] = system: HCT-116
[6] = system: MCF7
[7] = system: NCI-H522
[8] = system: NCI/ADR-RES
[9] = system: OVCAR-5
[10] = system: UO-31
[11] = system: SF-268
[12] = system: HCC 2998
[13] = system: A498
[14] = system: MDA-MB-435
[15] = system: SNB-19
[16] = system: NCI-H23
[17] = system: MDA-MB-231
[18] = system: SK-MEL-28
[19] = system: PC-3
[20] = system: HOP-92

SMILES | GI50 [1] | GI50 [2] | GI50 [3] | GI50 [4] | GI50 [5] | GI50 [6] | GI50 [7] | GI50 [8] | GI50 [9] | GI50 [10] | GI50 [11] | GI50 [12] | GI50 [13] | GI50 [14] | GI50 [15] | GI50 [16] | GI50 [17] | GI50 [18] | GI50 [19] | GI50 [20]
CCN1C/C(=C\c2cc(OC)c(OC)c(OC)c2)C2=NN(c3ccccc3)C(c3cc(OC)c(OC)c(OC)c3)C2C1 (stereo not given) | 0.535 µM (active) | 1.06 µM (active) | 0.855 µM (active) | 0.203 µM (active) | 1.89 µM (inactive) | 6 µM (inactive) | 1.13 µM (inactive) | 1.43 µM (inactive) | 2.84 µM (inactive) | 2.08 µM (inactive) | 0.365 µM (active) | 1.07 µM (active) | 17.1 µM (inactive) | 1.52 µM (inactive) | 1.97 µM (inactive) | 3.56 µM (inactive) | 0.525 µM (active) | 0.871 µM (active) | 1.08 µM (active) | 2.92 µM (inactive)
O=C(CC(Cc1ccccc1)c1ccc(Oc2ccccc2)cc1)Nc1cccc(Cl)c1 (stereo not given) | 26.1 µM (inactive) | 3.83 µM (inactive) | 3.83 µM (inactive) | 15 µM (inactive) | 3.6 µM (inactive) | 3.42 µM (inactive) | 3.1 µM (inactive) | 3.62 µM (inactive) | 28.6 µM (inactive) | 4.24 µM (inactive) | 19.2 µM (inactive) | 3.27 µM (inactive) | 4.47 µM (inactive) | 4.32 µM (inactive) | 4.5 µM (inactive) | 3.35 µM (inactive) | 10.8 µM (inactive) | 9.16 µM (inactive) | 3.7 µM (inactive) | 1.9 µM (inactive)
CCOC(=O)C1=CC(C)(C(=O)OCC)Nc2c(nc(SC)[nH]c2=O)N1 (stereo not given) | > 10 µM (inactive) | > 10 µM (inactive) | > 10 µM (inactive) | > 10 µM (inactive) | > 10 µM (inactive) | > 10 µM (inactive) | > 10 µM (inactive) | > 10 µM (inactive) | > 10 µM (inactive) | > 10 µM (inactive) | > 10 µM (inactive) | > 10 µM (inactive) | > 10 µM (inactive) | > 10 µM (inactive) | > 10 µM (inactive) | > 10 µM (inactive) | > 10 µM (inactive) | > 10 µM (inactive) | > 10 µM (inactive) | > 10 µM (inactive)
COc1cc(O)c2c(=O)c(OC)c(-c3ccc4c(c3)OCO4)oc2c1OC | 18.5 µM (inactive) | > 50 µM (inactive) | 21.8 µM (inactive) | > 50 µM (inactive) | 49.7 µM (inactive) | > 50 µM (inactive) | > 50 µM (inactive) | > 50 µM (inactive) | > 50 µM (inactive) | > 50 µM (inactive) | 21.7 µM (inactive) | > 50 µM (inactive) | > 50 µM (inactive) | > 50 µM (inactive) | 25.9 µM (inactive) | > 50 µM (inactive) | 32 µM (inactive) | > 50 µM (inactive) | > 50 µM (inactive) | 7.6 µM (inactive)
CC(=O)Nc1ccc(/N=C2\C(c3ccccc3)=C(SC3=C(c4ccccc4)/C(=N\c4ccc(NC(C)=O)cc4)c4ccccc43)c3ccccc32)cc1 | < 0.01 µM (active) | 26.7 µM (inactive) | 29.7 µM (inactive) | 27.2 µM (inactive) | 34.4 µM (inactive) | 27.4 µM (inactive) | 28.4 µM (inactive) | 27.2 µM (inactive) | 51.5 µM (inactive) | 24.7 µM (inactive) | 33.8 µM (inactive) | 26.7 µM (inactive) | 20.6 µM (inactive) | 26.5 µM (inactive) | 56 µM (inactive) | 31.3 µM (inactive) | 50.8 µM (inactive) | 32.7 µM (inactive) | 31.1 µM (inactive) | 27 µM (inactive)
Fc1ccc2c(c1)nc1n2C(c2c(F)cccc2F)SC1 (stereo not given) | > 100 µM (inactive) | 37 µM (inactive) | 66.7 µM (inactive) | 55.1 µM (inactive) | 25.6 µM (inactive) | 42.1 µM (inactive) | 30.1 µM (inactive) | 27.1 µM (inactive) | 98.6 µM (inactive) | 25 µM (inactive) | 53.2 µM (inactive) | 71.6 µM (inactive) | 71.8 µM (inactive) | 49.9 µM (inactive) | 45.4 µM (inactive) | 34 µM (inactive) | 91.8 µM (inactive) | > 100 µM (inactive) | 51.6 µM (inactive) | 26.2 µM (inactive)
Cc1ccc2nc3[nH]nc(N)c3nc2c1 | > 100 µM (inactive) | > 100 µM (inactive) | > 100 µM (inactive) | > 100 µM (inactive) | > 100 µM (inactive) | > 100 µM (inactive) | > 100 µM (inactive) | > 100 µM (inactive) | > 100 µM (inactive) | 52 µM (inactive) | > 100 µM (inactive) | > 100 µM (inactive) | 85.3 µM (inactive) | > 100 µM (inactive) | > 100 µM (inactive) | > 100 µM (inactive) | > 100 µM (inactive) | > 100 µM (inactive) | 93.3 µM (inactive) | 87.1 µM (inactive)
COc1ccc2c(c1OC)C(=O)O[C@@H]2[C@H]1c2c(cc3c(c2OC)OCO3)CCN1C [NOSCAPINE] | 30.8 µM (inactive) | 39.9 µM (inactive) | 71.4 µM (inactive) | 33.5 µM (inactive) | 50.5 µM (inactive) | 42.3 µM (inactive) | 30.3 µM (inactive) | 43.8 µM (inactive) | > 100 µM (inactive) | 69 µM (inactive) | 71.8 µM (inactive) | 79.4 µM (inactive) | > 100 µM (inactive) | 4.86 µM (inactive) | 80.5 µM (inactive) | 79.1 µM (inactive) | 76.6 µM (inactive) | 42.1 µM (inactive) | 50.1 µM (inactive) | > 100 µM (inactive)
